The results in this text go back to patent US20140023611A1 (priority 2010, published 2014).

A short description of data set [1]: Determination of compound Cmax and AUC after oral gavage (plasma LC-MS/MS). Conditions: Sprague-Dawley, rat, plasma, po. Format: in vivo, Sprague-Dawley rats. On the procedure: Sprague-Dawley rats were orally gavaged with test article at a nominal dose of 2.5 or 10 mg/kg and blood was collected at 0.5, 1, 2 and 4 h. Blood samples were processed to plasma using K2EDTA as an anticoaglulant. Plasma samples were treated with acetonitrile containing an internal standard, precipitated proteins removed by centrifugation. Supernatants were analyzed by LC-MS/MS and compound concentrations were determined by interpolation from a standard curve prepared in plasma. All compounds were orally dosed at the dosage shown, and pharmacokinetic parameters determined.
(§1) Sprague-Dawley rats were orally gavaged with test article at a nominal dose of 2.5 or 10 mg/kg and blood was collected at 0.5, 1, 2 and 4 h. Blood samples were processed to plasma using K2EDTA as an anticoaglulant. Plasma samples were treated with acetonitrile containing an internal standard, precipitated proteins removed by centrifugation. Supernatants were analyzed by LC-MS/MS and compound concentrations were determined by interpolated from a standard curve prepared in plasma. All compounds were orally dosed at the dosage shown, and pharmacokinetic parameters determined.
as §1

A further data set concerns the target T1, rat NaP2b (SLC34A2) (Rattus norvegicus, UniProt Q9JJ09).
T1 construct: host or cells: HEK293
T1 sequence (Q9JJ09 1-695): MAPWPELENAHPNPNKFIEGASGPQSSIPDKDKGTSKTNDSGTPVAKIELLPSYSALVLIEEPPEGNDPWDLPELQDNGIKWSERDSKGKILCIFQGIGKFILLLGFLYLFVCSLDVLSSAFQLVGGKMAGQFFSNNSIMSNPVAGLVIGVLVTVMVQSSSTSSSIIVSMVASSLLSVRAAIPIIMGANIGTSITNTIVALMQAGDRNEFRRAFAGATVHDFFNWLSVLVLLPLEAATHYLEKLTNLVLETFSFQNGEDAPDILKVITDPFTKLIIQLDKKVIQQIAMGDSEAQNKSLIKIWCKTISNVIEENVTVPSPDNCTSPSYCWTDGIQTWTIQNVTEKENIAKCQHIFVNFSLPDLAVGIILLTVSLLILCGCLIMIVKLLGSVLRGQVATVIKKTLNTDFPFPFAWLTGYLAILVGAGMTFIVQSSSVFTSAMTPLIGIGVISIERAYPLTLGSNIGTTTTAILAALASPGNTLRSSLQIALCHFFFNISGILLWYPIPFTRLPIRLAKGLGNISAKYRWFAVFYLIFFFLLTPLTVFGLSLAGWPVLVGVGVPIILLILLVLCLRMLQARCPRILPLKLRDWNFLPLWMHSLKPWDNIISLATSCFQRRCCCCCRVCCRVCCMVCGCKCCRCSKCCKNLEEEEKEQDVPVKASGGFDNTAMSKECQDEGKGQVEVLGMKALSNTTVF
As to the kind of experiment: Inhibition of NaP2b-mediated Pi (33P) uptake in transfected HEK293 cells, rat NaP2b. The format is cell-based. The note with it: 33P Pi uptake, 0.1 mM phosphate, value given as pIC50 range. In a few lines: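 HEK293 cells were transiently transfected with NaP2b cDNA using Lipofectamine and grown near confluence. Compounds were tested at twelve concentrations from 0.1 nM to 30 uM in duplicate, and 33P-phosphate uptake was counted by scintillation after lysis. Results are expressed as pIC50.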

The mark [2] stands for this setting: Structure (I) examples, Table 15, actual oral dose 3-15 mg/kg, plasma 0.5-4 h.
[3] abbreviates: Structure (II) examples, Table 6, actual oral dose 7.6-11 mg/kg.
Setting [4] is: Structure (III) examples, Table 6, actual oral dose 8.9-10 mg/kg.

In data set [1] (setting [2]), `CN(C)C(=O)C1CCN(CCN(C)C(=O)c2cccc(C(=O)Nc3ccc(N4CCCCC4)cc3-c3cc(C(=O)N[C@H]4CCCc5ccccc54)ccn3)c2)CC1` [Example 218, (S)—N1-(2-(4-(dimethylcarbamoyl)piperidin-1-yl)ethyl)-N1-methyl-N3-(4-(piperidin-1-yl)-2-(4-(1,2,3,4-tetrahydronaphthalen-1-ylcarbamoyl)pyridin-2-yl)phenyl)isophthalamide] gave an AUC below 30 ng·h/mL and a maximum concentration (Cmax) below 10 ng/mL. Further, at rat NaP2b (SLC34A2), the IC50 is 1 to 7.94 µM.
The matching figures for `O=C(O)CCCNC(=O)Cc1cccc(SCc2cccc(C(=O)Nc3ccc(N4CCCCC4)cc3-c3cc(C(=O)NCc4cccc(C(F)(F)F)c4)ccn3)c2)c1` [Example 141]: above 50 ng·h/mL, above 50 ng/mL and 1 to 7.94 µM.
In data set [1] (setting [2]), `O=C(O)CCSCc1cccc(C(=O)Nc2ccc(N3CCCCC3)cc2-c2cc(C(=O)NCc3cccc(C(F)(F)F)c3)ccn2)c1` [Example 1.1, 3-(3-((2-(4-((3-(Trifluoromethyl)benzyl)carbamoyl)pyridin-2-yl)-4-(piperidin-1-yl)phenyl)carbamoyl)benzylthio)propanoic acid] displayed an AUC above 50 ng·h/mL and a maximum concentration (Cmax) below 50 ng/mL.
Consider `COCCN(C)C(=O)N1CCN(CCN(C)C(=O)c2cccc(C(=O)Nc3ccc(N4CCCCC4)cc3-c3cc(C(=O)NCc4cccc(C(F)(F)F)c4)ccn3)c2)CC1` [Example 211, N1-(2-(4-((2-methoxyethyl)(methyl)carbamoyl)piperazin-1-yl)ethyl)-N1-methyl-N3-(4-(piperidin-1-yl)-2-(4-(3-(trifluoromethyl)benzylcarbamoyl)pyridin-2-yl)phenyl)isophthalamide], for which, in data set [1] (setting [2]), the AUC was below 30 ng·h/mL and the Cmax is below 10 ng/mL. The concentration for half-maximal inhibition (IC50) against rat NaP2b (SLC34A2) was 1 to 7.94 µM.
In data set [1] (setting [3]), `O=C(O)CCSCc1cccc(C(=O)Nc2ccc(N3CCCCC3)cc2C(=O)Nc2ccn(-c3cccc(C(F)(F)F)c3)n2)c1` [Example 7] had an area under the curve (AUC) of 467 ng·h/mL and a maximum concentration (Cmax) of 393 ng/mL.
In turn, `O=C(O)CCOCCOCCOCCNC(=O)Cc1cccc(SCc2cccc(C(=O)Nc3ccc(N4CCCCC4)cc3C(=O)Nc3ccn(-c4cccc(C(F)(F)F)c4)n3)c2)c1` [Example 26] displayed a Cmax in data set [1] (setting [3]) of 3 ng/mL.
`COCCOCCOCCOCCOCCOCCOCCOCCNC(=O)[C@@H]1CCCN1CCN(C)C(=O)c1cccc(C(=O)Nc2ccc(N3CCCCC3)cc2-c2cc(C(=O)N[C@H]3CCCc4ccccc43)ccn2)c1` [Example 195, N^1-(2-((S)-2-(2,5,8,11,14,17,20,23-octaoxapentacosan-25-ylcarbamoyl)pyrrolidin-1-yl)ethyl)-N-methyl-N^3-(4-(piperidin-1-v)-2-(4-(((S)-1,2,3,4-tetrahydronaphthalen-1-yl)carbamoyl)pyridin-2-yl)phenyl)isophthalamide]: in data set [1] (setting [2]), the area under the curve (AUC) was below 10 ng·h/mL and the Cmax was below 10 ng/mL. The compound further gave a half-inhibitory concentration (IC50) on rat NaP2b (SLC34A2) of 1 to 7.94 µM.
In data set [1] (setting [3]), `CN(CCN1CCOCC1)C(=O)c1cccc(C(=O)Nc2ccc(N3CCCCC3)cc2C(=O)Nc2ccn(-c3cccc(C(F)(F)F)c3)n2)c1` [Example 11] returned an AUC of 9.8 ng·h/mL and a peak concentration (Cmax) of 5 ng/mL.
The matching figures for `CN(CCOCCOCCOCCC(=O)O)C(=O)c1cccc(C(=O)Nc2ccc(N3CCCCC3)cc2C(=O)Nc2ccn(-c3cccc(C(F)(F)F)c3)n2)c1` [Example 15]: 11 ng·h/mL and 10 ng/mL.
In data set [1] (setting [2]), `CN(CCOCCOCCOCCC(=O)O)C(=O)c1cccc(C(=O)Nc2ccc(N3CCCCC3)cc2-c2cc(C(=O)N[C@H]3CCCc4ccccc43)ccn2)c1` [Example 249, 3-[2-(2-{2-[N-methyl-1-(3-{[4-(piperidin-1-yl)-2-(4-{[(1S)-1,2,3,4-tetrahydronaphthalen-1-yl]carbamoyl}pyridin-2-yl)phenyl]carbamoyl}phenyl)formamido]ethoxy}ethoxy)ethoxy]propanoic acid] gave an AUC below 30 ng·h/mL and a Cmax below 10 ng/mL. The same compound had an IC50 on rat NaP2b (SLC34A2) of 1 to 7.94 µM.
In data set [1] (setting [4]), `CN(CCN1CCOCC1)C(=O)c1cccc(C(=O)Nc2ccc(N3CCCCC3)cc2C(=O)Nc2cnc(-c3ccccc3)nc2)c1` [Example 11] came in with an exposure (AUC) of 140 ng·h/mL and a Cmax of 70 ng/mL.
In data set [1] (setting [2]), `CN(CCN1CCOCC1)C(=O)c1cccc(C(=O)Nc2ccc(OC3CCC3)cc2-c2cc(C(=O)NCc3cccc(C(F)(F)F)c3)ccn2)c1` [Example 26] returned an AUC below 30 ng·h/mL and a peak concentration (Cmax) below 30 ng/mL.
With `O=C(O)Cc1ccc(SCc2cccc(C(=O)Nc3ccc(N4CCCCC4)cc3-c3cc(C(=O)NCc4cccc(C(F)(F)F)c4)ccn3)c2)cc1` [Example 8.17], at rat NaP2b (SLC34A2), the half-maximal inhibitory concentration (IC50) is below 1 µM.
Same read-out and setting: then `O=C(O)CN(CCOCCO)C(=O)CCOCCOCCOCCOCCSCc1cccc(C(=O)Nc2ccc(N3CCCCC3)cc2-c2cc(C(=O)NCc3cccc(C(F)(F)F)c3)ccn2)c1` [Example 145, 18-(2-(2-hydroxyethoxy)ethyl)-17-oxo-1-(3-(4-(piperidin-1-yl)-2-(4-(3-(trifluoromethyl)benzylcarbamoyl)pyridin-2-yl)phenylcarbamoyl)phenyl)-5,8,11,14-tetraoxa-2-thia-18-azaicosan-20-oic acid], with 10 to 31.6 µM.
